Data from patent publication US9765075B2, “Substituted bridged urea analogs as sirtuin modulators” (GLAXOSMITHKLINE LLC, priority 2013, dated 2017).

Target: T1, SIRT1 (Homo sapiens, UniProt Q96EB6)
T1 sequence (Q96EB6 1-747): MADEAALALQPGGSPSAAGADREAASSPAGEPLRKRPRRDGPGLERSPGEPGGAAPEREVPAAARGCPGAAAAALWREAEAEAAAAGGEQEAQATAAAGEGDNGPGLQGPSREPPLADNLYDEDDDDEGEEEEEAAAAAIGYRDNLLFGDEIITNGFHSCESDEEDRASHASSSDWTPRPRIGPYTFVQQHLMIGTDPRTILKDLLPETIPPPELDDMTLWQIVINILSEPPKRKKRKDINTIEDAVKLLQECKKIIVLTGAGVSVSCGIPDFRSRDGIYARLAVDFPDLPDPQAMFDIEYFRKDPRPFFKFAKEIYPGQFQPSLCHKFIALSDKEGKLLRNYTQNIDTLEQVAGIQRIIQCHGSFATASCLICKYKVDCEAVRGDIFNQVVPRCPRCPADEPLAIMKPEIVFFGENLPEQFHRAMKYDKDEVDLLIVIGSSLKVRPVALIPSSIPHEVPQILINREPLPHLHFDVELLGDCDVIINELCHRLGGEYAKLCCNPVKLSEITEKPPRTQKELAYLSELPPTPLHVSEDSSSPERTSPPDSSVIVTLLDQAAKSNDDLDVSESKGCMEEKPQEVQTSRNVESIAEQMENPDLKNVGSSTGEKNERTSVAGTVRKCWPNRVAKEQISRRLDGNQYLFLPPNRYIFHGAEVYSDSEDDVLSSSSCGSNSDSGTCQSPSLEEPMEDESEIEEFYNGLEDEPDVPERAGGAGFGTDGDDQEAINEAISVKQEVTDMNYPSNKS
Assay: Trp mass spectrometry assay (SIRT1 activation)
Assay type: biochemical
Details: Trp mass spectrometry assay; for Tryp AVG EC1.5 (μM): EC1.5 = concentration giving 150% activation of SIRT1; for Emax: percent maximum fold activation of SIRT1, read-out: Tryp % Fold Act
In short: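 Activation is expressed as EC1.5, the concentration raising activity 50% above DMSO control, and as maximum percent of control. Mass-spec readout was OAADPR or deacetylated Trp peptide after a formic-acid-quenched 25-min, 25 °C reaction: 10 nM bacterially expressed His-SIRT1, 0.5 μM acetyl-p53-derived peptide, 120 μM NAD+, pH 7.5 HEPES with […].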

Row | SMILES | Tryp AVG EC1.5 (μM) | Emax [%]
1 | CS(=O)(=O)c1cccc(-c2ccc3c(n2)N(C(=O)Nc2cccc(-c4cnco4)n2)[C@H]2CCN3C2)c1 [Example 715] | B (EC1.5 1-25 μM) | ≥ 150
2 | O=C(Nc1cncc(-c2cnco2)c1)N1c2nc(-c3cncc(F)c3)ccc2N2CC[C@H]1C2 [Example 716] | B (EC1.5 1-25 μM) | ≥ 150
3 | O=C(Nc1cccc(-c2cnco2)c1)N1c2nc(N3CCC[C@@H](C(F)(F)F)C3)ccc2N2CC[C@H]1C2 [Example 717] | A (EC1.5<1 μM) | ≥ 150
4 | O=C(Nc1cccc(-c2cnco2)c1)N1c2nc(N3CCC[C@H](C(F)(F)F)C3)ccc2N2CC[C@H]1C2 [Example 718] | A (EC1.5<1 μM) | ≥ 150
5 | O=C(Nc1cccc(-c2cnco2)c1)N1c2nc(-c3cncc(F)c3)ccc2N2CC[C@H]1C2 [Example 722] | A (EC1.5<1 μM) | ≥ 150
6 | CS(=O)(=O)c1cccc(-c2ccc3c(n2)N(C(=O)Nc2cc(-c4cnco4)ccn2)[C@H]2CCN3C2)c1 [Example 723] | A (EC1.5<1 μM) | ≥ 150
7 | CS(=O)(=O)c1cccc(-c2ccc3c(n2)N(C(=O)Nc2cncc(-c4cnco4)c2)[C@H]2CCN3C2)c1 [Example 724] | A (EC1.5<1 μM) | ≥ 150
8 | O=C(Nc1cc(-c2cnco2)ccn1)N1c2nc(-c3cncc(C(F)(F)F)c3)ccc2N2C[C@@H](O)[C@H]1C2 [Example 726] | B (EC1.5 1-25 μM) | < 150
9 | O=C(Nc1cc(-c2cnco2)ccn1)N1c2nc(-c3cncc(F)c3)ccc2N2CC[C@H]1C2 [Example 727] | A (EC1.5<1 μM) | ≥ 150
10 | O=C(Nc1cccc(-c2cnco2)n1)N1c2nc(-c3cncc(F)c3)ccc2N2CC[C@H]1C2 [Example 739] | A (EC1.5<1 μM) | ≥ 150
11 | O=C(Nc1cccc(-c2cnco2)c1)N1c2nc(N3CCCN(CC(F)(F)F)CC3)ccc2N2CC[C@H]1C2 [Example 741] | A (EC1.5<1 μM) | ≥ 150
12 | O=C(Nc1cc(-c2cnco2)cc(-c2cnco2)c1)N1c2nc(-c3cccc(C(F)(F)F)c3)ccc2N2CC[C@H]1C2 [Example 743] | A (EC1.5<1 μM) | ≥ 150
13 | O=C(Nc1nccc(N2CCNCC2)n1)N1c2nc(-c3cccc(C(F)(F)F)c3)ccc2N2CC[C@H]1C2 [Example 745] | B (EC1.5 1-25 μM) | ≥ 150
14 | Cc1cc(-c2ccc3c(n2)N(C(=O)Nc2cc(-c4cnco4)ccn2)[C@H]2CCN3C2)ccn1 [Example 746] | A (EC1.5<1 μM) | ≥ 150
15 | Cc1cc(-c2ccc3c(n2)N(C(=O)Nc2cncc(-c4cnco4)c2)[C@H]2CCN3C2)ccn1 [Example 748] | A (EC1.5<1 μM) | ≥ 150
16 | CC(C)(C)OC(=O)NCC#Cc1cc(NC(=O)N2c3nc(-c4cccc(C(F)(F)F)c4)ccc3N3CC[C@H]2C3)cc(-c2cnco2)c1 [Example 749] | A (EC1.5<1 μM) | ≥ 150
17 | CC(C)(C)OC(=O)NCC#Cc1ccc(NC(=O)N2c3nc(-c4cccc(C(F)(F)F)c4)ccc3N3CCC[C@H]2C3)cc1-c1cnco1 [Example 753] | A (EC1.5<1 μM) | ≥ 150
18 | CC(C)(C)OC(=O)NCCCc1cc(NC(=O)N2c3nc(-c4cccc(C(F)(F)F)c4)ccc3N3CCC[C@H]2C3)cc(-c2cnco2)c1 [Example 754] | A (EC1.5<1 μM) | –

The next lines start with the values.

Row | Tryp AVG EC1.5 (μM) | Emax [%] | SMILES
19 | A (EC1.5<1 μM) | ≥ 150 | O=C(Nc1nnc(-c2ccccc2)o1)N1c2nc(-c3cccc(C(F)(F)F)c3)ccc2N2CC[C@H]1C2 [Example 719]
20 | A (EC1.5<1 μM) | ≥ 150 | O=C(Nc1nnc(-c2ccccn2)o1)N1c2nc(-c3cccc(C(F)(F)F)c3)ccc2N2CC[C@H]1C2 [Example 720]
21 | A (EC1.5<1 μM) | ≥ 150 | O=C(Nc1nnc(-c2cccnc2)o1)N1c2nc(-c3cccc(C(F)(F)F)c3)ccc2N2CC[C@H]1C2 [Example 721]
22 | A (EC1.5<1 μM) | ≥ 150 | NCc1ncc(-c2cccc(NC(=O)N3c4nc(-c5cccc(C(F)(F)F)c5)ccc4N4CC[C@H]3C4)c2)o1 [Example 725]
23 | A (EC1.5<1 μM) | ≥ 150 | O=C(Nc1cccc(CN2CCNCC2)c1)N1c2nc(-c3cccc(C(F)(F)F)c3)ccc2N2CC[C@H]1C2 [Example 731]
24 | A (EC1.5<1 μM) | ≥ 150 | O=C(Nc1nnc(-c2ccncc2)s1)N1c2nc(-c3cccc(C(F)(F)F)c3)ccc2N2CC[C@H]1C2 [Example 733]
25 | B (EC1.5 1-25 μM) | ≥ 150 | O=C(Nc1ncc(-c2ccccc2)s1)N1c2nc(-c3cccc(C(F)(F)F)c3)ccc2N2CC[C@H]1C2 [Example 734]
26 | A (EC1.5<1 μM) | ≥ 150 | CCCC(=O)c1cccc(NC(=O)N2c3nc(-c4cccc(C(F)(F)F)c4)ccc3N3CC[C@H]2C3)c1 [Example 736]
27 | A (EC1.5<1 μM) | ≥ 150 | CCCCC(=O)c1cccc(NC(=O)N2c3nc(-c4cccc(C(F)(F)F)c4)ccc3N3CC[C@H]2C3)c1 [Example 737]
28 | A (EC1.5<1 μM) | ≥ 150 | CC(C)C(=O)c1cccc(NC(=O)N2c3nc(-c4cccc(C(F)(F)F)c4)ccc3N3CC[C@H]2C3)c1 [Example 740]
29 | A (EC1.5<1 μM) | ≥ 150 | CN1CCN(c2ccnc(NC(=O)N3c4nc(-c5cccc(C(F)(F)F)c5)ccc4N4CC[C@H]3C4)n2)CC1 [Example 742]
30 | A (EC1.5<1 μM) | ≥ 150 | CN(C)c1ccnc(NC(=O)N2c3nc(-c4cccc(C(F)(F)F)c4)ccc3N3CC[C@H]2C3)n1 [Example 747]
31 | A (EC1.5<1 μM) | ≥ 150 | CC(C)(C)OC(=O)NCCCc1ccc(NC(=O)N2c3nc(-c4cccc(C(F)(F)F)c4)ccc3N3CC[C@H]2C3)cc1-c1cnco1 [Example 750]
32 | A (EC1.5<1 μM) | ≥ 150 | CC(C)(C)OC(=O)NCC#Cc1ccc(NC(=O)N2c3nc(-c4cccc(C(F)(F)F)c4)ccc3N3CC[C@H]2C3)cc1-c1cnco1 [Example 751]
33 | A (EC1.5<1 μM) | ≥ 150 | CC(C)(C)OC(=O)NCCCc1ccc(NC(=O)N2c3nc(-c4cccc(C(F)(F)F)c4)ccc3N3CCC[C@H]2C3)cc1-c1cnco1 [Example 752]
34 | B (EC1.5 1-25 μM) | ≥ 150 | NCc1cccc(NC(=O)N2c3nc(-c4cccc(C(F)(F)F)c4)ccc3N3CC[C@H]2C3)c1 [Example 755]
35 | A (EC1.5<1 μM) | ≥ 150 | NCCCCCC(=O)NCc1cccc(NC(=O)N2c3nc(-c4cccc(C(F)(F)F)c4)ccc3N3CCC[C@H]2C3)c1 [Example 756]
36 | A (EC1.5<1 μM) | ≥ 150 | NCc1cccc(NC(=O)N2c3nc(-c4cccc(C(F)(F)F)c4)ccc3N3CCC[C@H]2C3)c1 [Example 757]
37 | A (EC1.5<1 μM) | ≥ 150 | NCCCCCC(=O)NCc1cccc(NC(=O)N2c3nc(-c4cccc(C(F)(F)F)c4)ccc3N3CC[C@H]2C3)c1 [Example 758]
38 | B (EC1.5 1-25 μM) | ≥ 150 | CC(C)(C)OC(=O)NCCCc1cc(NC(=O)N2c3nc(-c4cccc(C(F)(F)F)c4)ccc3N3CC[C@H]2C3)cc(-c2cnco2)c1 [Example 759]
